Results published in US20220249415A1, “COMPOSITION OF AZELAIC ACID HAVING ADIPOSE TRIGLYCERIDE HYDROLYSIS EFFECT” (Korea University Research and Business Foundation, priority 2018, published 2022).

Assays:
[1] = tested on: 3T3-L1 adipocytes in which the Olfr544 gene was knocked-down; test: cAMP, PKA activity and HSL phosphorylation in adipocytes in which Olfr544 gene was knocked-down; format: cell-based, mouse; conditions: Olfr544 shRNA transfected adipocytes treated with azelaic acid for 2 hours
Text: After the Olfr544 gene was knocked-down in the mouse adipocytes, cAMP assay was confirmed by the method described in Example 4, PKA activity was confirmed by the method described in Example 5, and phosphorylation of HSL protein was confirmed by the method described in Example 6.

[2] = tested on: hAMSC cells; test: Treatment of human adipocyte line hAMSC with azelaic acid; format: cell-based; conditions: azelaic acid 50 μM
Procedure: The anti-obesity effect was confirmed by treating a human adipocyte line, namely hAMSC cells (Cell Bio, CEFO, Seoul Korea), with azelaic acid (50 μM).

[3] = molecular target: T1, OR2K2 (Homo sapiens, UniProt Q8NGT1); test: siRNA knock-down of OR2K2 in hAMSC cells, lipolysis; format: cell-based; conditions: treated with azelaic acid
T1 construct: endogenous in cells; host or cells: HepG2
T1 sequence (Q8NGT1 1-316): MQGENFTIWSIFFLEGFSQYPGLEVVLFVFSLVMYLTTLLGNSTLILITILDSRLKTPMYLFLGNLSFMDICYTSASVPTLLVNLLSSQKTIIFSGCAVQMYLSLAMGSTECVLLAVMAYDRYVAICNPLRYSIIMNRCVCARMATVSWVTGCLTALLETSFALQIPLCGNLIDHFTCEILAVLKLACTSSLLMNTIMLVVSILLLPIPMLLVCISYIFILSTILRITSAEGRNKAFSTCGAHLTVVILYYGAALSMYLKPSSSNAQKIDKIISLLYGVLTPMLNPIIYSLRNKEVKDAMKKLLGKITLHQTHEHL
Text: The gene expression of OR1E1, OR1K1, OR2K2, OR2S2, OR13C5, and OR51E2, corresponding to the top 6 receptors among 10 human olfactory receptors selected to be expressed in both adipose tissue and liver tissue while interacting with azelaic acid, was knocked down with siRNA in human-derived liver cell and adipocyte lines, namely HepG2 cells and hAMSC cells, respectively. Here, siRNAs that were used were OR1E2 siRNA (sc-93932), OR1K2 (sc-92810), OR2K2 (sc-92852), OR2S2 (sc-92505), OR13C5 (sc-92899), and OR51E2 (sc-76265), purchased from Santa Cruz Biotechnology Inc. (Dallas, Tx USA).
After knock-down treatment, the cell lines were treated with azelaic acid, and triglyceride hydrolysis and fatty acid oxidation-related gene expression in HepG2 cells as a human-derived liver cell line and hAMSC cells as a human-derived adipocyte line were measured.

SMILES: O=C(O)CCCCCCCC(=O)O [azelaic acid, nonanedioic acid]
- cAMP-PKA-HSL signaling pathway [1]: all inactivated
- cAMP-PKA signaling [2]: activated
- calcium concentration [2]: no change
- inositol phosphate (IP) concentration [2]: no change
- release of glycerol [2]: promoted
- lipolytic effect, knock-down group compared to control group [3]: statistically significantly decreased
